Activity calls are given as the source filed them. The rule behind the calls is not given here.
Assays:
Mus musculus [1] = test: Memory improvement effect in Kunming mouse model of scopolamine-induced memory impairment assessed as reduction in number of errors at 5 mg/kg, ig administered once daily for 7 days followed by scopolamine challenge 30 mins prior to training on day 6 measured on day 7 by passive avoidance test; format: functional, organism-based; details: time 7.0 day
Mus musculus [2] = test: Reversal of scopolamine-induced memory impairment in Kunming mouse assessed as increase in ACh level in cerebral cortex at 5 mg/kg, ig administered once daily for 7 days followed by scopolamine challenge 30 mins prior to training trail on day 6 measured on day 7; format: functional, organism-based; details: time 7.0 day
Mus musculus [3] = test: Memory improvement effect in Kunming mouse model of scopolamine-induced memory impairment assessed as increase in latency time at 5 mg/kg, ig administered once daily for 7 days followed by scopolamine challenge 30 mins prior to training on day 6 measured on day 7 by passive avoidance test; format: functional, organism-based; details: time 7.0 day
Plasma [4] = test: Antiplatelet activity in rat platelet-rich plasma assessed as inhibition of ADP-induced platelet aggregation at 33 uM preincubated for 30 mins followed by ADP addition measured within 5 mins by aggregometry relative to control; format: functional; details: time 30-35 min
[5] = biological target: butyrylcholinesterase (BuChE) (Rattus norvegicus, UniProt Q9JKC1); test: Inhibition of rat serum BuChE at 10 uM using butyrylthiocholine iodide as substrate incubated for 15 mins by Ellman's method relative to control; format: cell-free; details: probe butyrylthiocholine iodide
Chain of butyrylcholinesterase (BuChE) (Q9JKC1 whole entry): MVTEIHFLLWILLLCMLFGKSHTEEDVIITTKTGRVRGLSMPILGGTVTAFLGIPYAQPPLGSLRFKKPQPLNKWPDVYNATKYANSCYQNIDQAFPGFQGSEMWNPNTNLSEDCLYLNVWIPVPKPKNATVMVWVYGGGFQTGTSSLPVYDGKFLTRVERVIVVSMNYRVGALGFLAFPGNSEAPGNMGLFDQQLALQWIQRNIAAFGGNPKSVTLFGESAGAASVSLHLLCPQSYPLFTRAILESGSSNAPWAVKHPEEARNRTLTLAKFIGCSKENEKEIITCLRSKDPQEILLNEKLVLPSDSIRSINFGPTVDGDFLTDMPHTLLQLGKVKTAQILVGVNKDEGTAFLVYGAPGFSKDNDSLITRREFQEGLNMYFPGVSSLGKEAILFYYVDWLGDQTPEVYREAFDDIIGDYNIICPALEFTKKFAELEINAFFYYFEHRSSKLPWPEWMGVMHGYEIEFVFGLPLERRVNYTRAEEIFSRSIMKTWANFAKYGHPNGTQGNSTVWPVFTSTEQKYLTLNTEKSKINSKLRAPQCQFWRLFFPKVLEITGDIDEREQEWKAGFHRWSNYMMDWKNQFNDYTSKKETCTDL

[6] = Permeability of the compound in pH 7.4 PBS/EtOH at 100 ug/ml after 18 hrs by PAMPA-BBB assay; format: ADME; details: dose 100 µg/ml, read-out: permeability
[7] = biological target: Amyloid-beta precursor protein (Homo sapiens) (UniProt P05067); test: Inhibition of amyloid beta (1 to 42) (unknown origin) self aggregation at 25 uM after 24 hrs by thioflavin-T fluorescence method relative to control
Chain of Amyloid-beta precursor protein (Homo sapiens) (P05067 whole entry): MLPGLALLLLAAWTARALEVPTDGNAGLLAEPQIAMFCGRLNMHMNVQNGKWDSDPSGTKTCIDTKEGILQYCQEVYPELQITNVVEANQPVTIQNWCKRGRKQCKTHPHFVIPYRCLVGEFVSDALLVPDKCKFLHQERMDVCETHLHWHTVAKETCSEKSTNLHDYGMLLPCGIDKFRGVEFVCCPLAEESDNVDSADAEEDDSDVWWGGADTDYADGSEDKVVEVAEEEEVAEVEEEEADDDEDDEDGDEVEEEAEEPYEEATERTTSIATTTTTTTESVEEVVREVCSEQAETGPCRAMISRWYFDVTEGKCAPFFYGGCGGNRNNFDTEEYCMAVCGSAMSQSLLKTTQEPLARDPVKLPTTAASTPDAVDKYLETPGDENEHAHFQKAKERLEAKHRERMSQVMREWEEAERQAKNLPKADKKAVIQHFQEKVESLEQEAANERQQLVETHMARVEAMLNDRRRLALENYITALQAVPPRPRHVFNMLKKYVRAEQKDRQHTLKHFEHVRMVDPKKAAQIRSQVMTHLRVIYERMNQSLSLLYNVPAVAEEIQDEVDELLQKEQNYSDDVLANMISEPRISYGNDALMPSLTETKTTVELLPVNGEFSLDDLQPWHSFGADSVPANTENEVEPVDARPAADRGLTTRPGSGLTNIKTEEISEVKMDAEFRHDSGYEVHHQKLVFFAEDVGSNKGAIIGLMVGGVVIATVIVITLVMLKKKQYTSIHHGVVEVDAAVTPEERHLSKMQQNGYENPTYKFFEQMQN

[8] = biological target: T1, Amine oxidase [flavin-containing] B (Homo sapiens, UniProt P27338); test: Inhibition of recombinant human MAOB at 10 uM using kynuramine as substrate preincubated for 30 mins followed by substrate addition and measured after 30 mins by fluorescence assay relative to control; details: 0.5 h
T1 sequence (P27338 whole entry): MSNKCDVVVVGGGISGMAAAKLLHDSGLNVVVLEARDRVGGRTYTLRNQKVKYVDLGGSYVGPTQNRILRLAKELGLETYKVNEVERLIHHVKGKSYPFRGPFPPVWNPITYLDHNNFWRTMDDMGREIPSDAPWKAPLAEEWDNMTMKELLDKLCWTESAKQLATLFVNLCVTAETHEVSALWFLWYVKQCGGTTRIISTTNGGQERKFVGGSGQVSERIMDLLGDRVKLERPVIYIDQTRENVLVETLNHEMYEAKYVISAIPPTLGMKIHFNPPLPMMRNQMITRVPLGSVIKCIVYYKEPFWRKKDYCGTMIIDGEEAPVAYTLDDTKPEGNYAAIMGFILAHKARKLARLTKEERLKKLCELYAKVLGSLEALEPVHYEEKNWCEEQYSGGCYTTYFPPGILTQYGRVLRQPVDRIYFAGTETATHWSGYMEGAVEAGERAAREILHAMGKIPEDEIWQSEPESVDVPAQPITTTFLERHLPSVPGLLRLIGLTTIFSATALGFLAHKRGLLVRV

Acetylcholinesterase [9] = biological target: T2, Acetylcholinesterase (Electrophorus electricus, UniProt O42275); test: Inhibition of Electrophorus electricus AChE using acetylthiocholine iodide as substrate incubated for 15 mins by Ellman's method
T2 sequence (O42275 whole entry): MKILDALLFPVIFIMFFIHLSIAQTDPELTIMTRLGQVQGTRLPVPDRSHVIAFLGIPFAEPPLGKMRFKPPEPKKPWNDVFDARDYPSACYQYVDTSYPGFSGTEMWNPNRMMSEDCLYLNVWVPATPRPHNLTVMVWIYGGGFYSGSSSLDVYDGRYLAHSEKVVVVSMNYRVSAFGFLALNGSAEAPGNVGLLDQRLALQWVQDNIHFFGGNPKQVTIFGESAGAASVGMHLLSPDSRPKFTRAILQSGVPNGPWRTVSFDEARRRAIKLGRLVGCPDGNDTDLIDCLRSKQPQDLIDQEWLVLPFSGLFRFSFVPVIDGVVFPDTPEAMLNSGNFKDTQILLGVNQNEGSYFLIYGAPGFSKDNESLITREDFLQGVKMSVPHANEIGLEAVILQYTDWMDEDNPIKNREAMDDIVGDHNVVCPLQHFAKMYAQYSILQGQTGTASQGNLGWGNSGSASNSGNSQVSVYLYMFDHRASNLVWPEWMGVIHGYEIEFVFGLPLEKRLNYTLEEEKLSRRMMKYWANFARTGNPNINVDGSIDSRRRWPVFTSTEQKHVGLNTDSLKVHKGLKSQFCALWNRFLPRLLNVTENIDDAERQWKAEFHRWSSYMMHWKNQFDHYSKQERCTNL

MAO-A = biological target: T3, MAO-A (Homo sapiens, UniProt P21397); test: Inhibition of recombinant human MAOA at 10 uM using kynuramine as substrate preincubated for 30 mins followed by substrate addition and measured after 30 mins by fluorescence assay relative to control; details: probe kynuramine, time 60 min
T3 sequence (P21397 whole entry): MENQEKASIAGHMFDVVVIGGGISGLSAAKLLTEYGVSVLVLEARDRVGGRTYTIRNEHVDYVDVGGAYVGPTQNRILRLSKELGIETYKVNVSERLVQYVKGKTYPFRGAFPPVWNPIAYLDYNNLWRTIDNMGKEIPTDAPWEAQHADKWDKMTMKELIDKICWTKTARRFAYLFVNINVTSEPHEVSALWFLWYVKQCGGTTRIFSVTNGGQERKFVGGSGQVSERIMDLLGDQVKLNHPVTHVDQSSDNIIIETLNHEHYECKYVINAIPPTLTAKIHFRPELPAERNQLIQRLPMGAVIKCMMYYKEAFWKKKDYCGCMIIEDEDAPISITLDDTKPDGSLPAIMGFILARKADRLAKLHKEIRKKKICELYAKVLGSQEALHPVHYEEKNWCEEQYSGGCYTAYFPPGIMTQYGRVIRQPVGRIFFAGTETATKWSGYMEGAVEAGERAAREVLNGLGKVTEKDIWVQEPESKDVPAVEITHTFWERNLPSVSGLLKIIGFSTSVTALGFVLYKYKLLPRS

[10] = Antioxidant activity assessed as trolox equivalent of AAPH radical scavenging activity measured every min for 90 mins by ORAC-FL assay; format: functional
Acetylcholinesterase [11] = biological target: T4, Acetylcholinesterase (Homo sapiens, UniProt P22303); test: Inhibition of human AChE using acetylthiocholine iodide as substrate incubated for 15 mins by Ellman's method
T4 sequence (P22303 whole entry): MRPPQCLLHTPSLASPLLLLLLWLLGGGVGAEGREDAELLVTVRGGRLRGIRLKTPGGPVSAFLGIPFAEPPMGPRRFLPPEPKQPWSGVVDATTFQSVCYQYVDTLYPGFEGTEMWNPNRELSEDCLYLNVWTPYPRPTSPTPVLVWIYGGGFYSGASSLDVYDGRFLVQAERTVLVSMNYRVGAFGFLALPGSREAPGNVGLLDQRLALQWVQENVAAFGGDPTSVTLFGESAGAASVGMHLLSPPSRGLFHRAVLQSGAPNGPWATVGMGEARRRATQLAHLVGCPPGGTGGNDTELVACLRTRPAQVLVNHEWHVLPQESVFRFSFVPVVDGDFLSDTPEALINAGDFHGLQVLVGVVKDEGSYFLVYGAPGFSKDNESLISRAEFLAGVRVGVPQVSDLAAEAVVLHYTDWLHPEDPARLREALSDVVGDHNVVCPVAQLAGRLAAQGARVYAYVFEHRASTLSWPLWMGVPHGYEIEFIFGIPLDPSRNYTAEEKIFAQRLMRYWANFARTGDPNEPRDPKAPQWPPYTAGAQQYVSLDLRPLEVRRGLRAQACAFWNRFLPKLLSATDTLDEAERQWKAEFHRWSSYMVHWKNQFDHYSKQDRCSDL

[12] = biological target: Acetylcholinesterase (Electrophorus electricus) (UniProt O42275); test: Inhibition of Electrophorus electricus AChE at 10 uM using acetylthiocholine iodide as substrate incubated for 15 mins by Ellman's method relative to control
Chain of Acetylcholinesterase (Electrophorus electricus) (O42275 24-633 limits assumed): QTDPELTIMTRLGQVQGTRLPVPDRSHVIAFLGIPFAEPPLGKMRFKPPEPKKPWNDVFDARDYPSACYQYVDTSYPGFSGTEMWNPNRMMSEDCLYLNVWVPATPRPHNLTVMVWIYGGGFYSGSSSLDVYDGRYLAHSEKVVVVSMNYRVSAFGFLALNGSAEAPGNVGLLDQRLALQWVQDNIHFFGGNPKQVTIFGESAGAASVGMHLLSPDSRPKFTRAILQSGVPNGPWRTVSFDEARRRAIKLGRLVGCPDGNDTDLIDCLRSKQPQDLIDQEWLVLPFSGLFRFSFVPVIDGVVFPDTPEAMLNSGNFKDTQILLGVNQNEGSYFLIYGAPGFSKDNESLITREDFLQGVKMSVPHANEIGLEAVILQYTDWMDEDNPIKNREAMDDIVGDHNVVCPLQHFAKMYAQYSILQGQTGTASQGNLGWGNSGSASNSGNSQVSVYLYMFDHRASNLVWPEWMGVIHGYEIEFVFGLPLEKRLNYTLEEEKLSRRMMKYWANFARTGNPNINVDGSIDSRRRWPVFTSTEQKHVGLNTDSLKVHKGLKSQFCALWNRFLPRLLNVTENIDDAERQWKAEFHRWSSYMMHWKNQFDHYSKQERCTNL

[13] = biological target: T1, Amine oxidase [flavin-containing] B; test: Inhibition of recombinant human MAOB using kynuramine as substrate preincubated for 30 mins followed by substrate addition and measured after 30 mins by fluorescence assay
Plasma [14] = test: Antiplatelet activity in rat platelet-rich plasma assessed as inhibition of ADP-induced platelet aggregation preincubated for 30 mins followed by ADP addition measured within 5 mins by aggregometry; format: functional
PC-12 [15] = test: Neuroprotective activity against H2O2-induced cytotoxicity in rat PC12 cells assessed as cell viability at 50 uM preincubated for 2 hrs followed by H2O2 addition and measured after 24 hrs by MTT assay (reference value: 53.1%); format: cell-based; details: PC-12, 24 h, time 26 hrs, read-out: Activity
[16] = Cytotoxicity against rat PC-12 cells assessed as cell viability at 100 uM measured after 2 hrs by MTT assay relative to control; format: cell-based; details: read-out: Activity
Mus musculus [17] = test: Memory improvement effect in ig dosed Kunming mouse model of scopolamine-induced memory impairment assessed as reduction in number of errors administered once daily for 7 days followed by scopolamine challenge 30 mins prior to training on day 6 measured on day 7 by passive avoidance test; format: functional, organism-based; details: dose 0.19-4.75 mg/kg, time 7.0 day
Mus musculus [18] = test: Memory improvement effect in ig dosed Kunming mouse model of scopolamine-induced memory impairment assessed as increase in latency time administered once daily for 7 days followed by scopolamine challenge 30 mins prior to training on day 6 measured on day 7 by passive avoidance test; format: functional, organism-based; details: dose 0.19-4.75 mg/kg, time 7.0 day
PC-12 [19] = test: Cytotoxicity against rat PC-12 cells assessed as effect on cell viability up to 50 uM measured after 2 hrs by MTT assay; format: cell-based; details: pc-12, 2 h
[20] = Metal chelating activity assessed as compound-Zn2+ complex formation by measuring induction of red shift at 37.5 uM measured after 2 hrs by UV-visible spectrometric method
PC-12 [21] = test: Neuroprotective activity against H2O2-induced cytotoxicity in rat PC12 cells assessed as increase in cell viability preincubated for 2 hrs followed by H2O2 addition and measured after 24 hrs by MTT assay; format: functional, cell-based; details: dose 1-50 µM, time 26.0 hrs
[22] = biological target: Amyloid-beta precursor protein (Homo sapiens) (UniProt P05067); test: Disaggregation of self-induced amyloid beta (1 to 42) (unknown origin) preformed fibrils at 25 uM measured after 24 hrs by thioflavin-T fluorescence assay relative to control
Acetylcholinesterase [23] = biological target: T2, Acetylcholinesterase; test: Competitive inhibition of Electrophorus electricus AChE using varying levels of acetylthiocholine iodide as substrate preincubated for 15 mins followed by substrate addition and measured for 15 mins by Ellman's method based Lineweaver-Burk plot analysis
[24] = Inhibition of Cu2+-induced amyloid beta (1 to 42 residues) aggregation at 25 uM after 24 hrs by thioflavin T-based fluorescence assay relative to control
[25] = Metal chelating activity assessed as compound-Fe2+ complex formation by measuring induction of red shift at 37.5 uM measured after 2 hrs by UV-visible spectrometric method
[26] = Metal chelating activity assessed as compound-Cu2+ complex formation by measuring induction of red shift at 37.5 uM measured after 2 hrs by UV-visible spectrometric method
[27] = Metal chelating activity assessed as compound-Al3+ complex formation by measuring induction of blue shift at 37.5 uM measured after 2 hrs by UV-visible spectrometric method
[28] = Metal chelating activity assessed as mole fraction required to show 1:1 stoichiometry for compound-Cu2+ complex formation measured after 30 mins
Mus musculus [29] = test: Reversal of scopolamine-induced memory impairment in ig dosed Kunming mouse assessed as increase in ACh level in cerebral cortex administered once daily for 7 days followed by scopolamine challenge 30 mins prior to training trail on day 6 measured on day 7; format: functional, organism-based; details: dose 0.19-4.75 mg/kg, time 7.0 day
Acetylcholinesterase [30] = biological target: T4, Acetylcholinesterase; test: Inhibition of human AChE at 10 uM using acetylthiocholine iodide as substrate incubated for 15 mins by Ellman's method relative to control
PC-12 [31] = test: Neuroprotective activity against H2O2-induced cytotoxicity in rat PC12 cells assessed as increase in cell viability at 10 uM preincubated for 2 hrs followed by H2O2 addition and measured after 24 hrs by MTT assay; format: functional, cell-based; details: time 26.0 hrs
PC-12 [32] = test: Neuroprotective activity against H2O2-induced cytotoxicity in rat PC12 cells assessed as increase in cell viability at 100 uM preincubated for 2 hrs followed by H2O2 addition and measured after 24 hrs by MTT assay; format: functional, cell-based; details: time 26.0 hrs

Row | SMILES | inhibition at 33 µM (Plasma [4]) | inhibition at […], 10 µM [5] | inhibition [7] | inhibition at 10 µM [8] | IC50 (Acetylcholinesterase [9]) | inhibition at 0.5 h, 10 µM (MAO-A) | Activity [10] | IC50 (Acetylcholinesterase [11]) | Activity [22] | inhibition [24] | also measured
1 | COc1cc2c(cc1OC)C(=O)C(CC1CCN(Cc3ccccc3)CC1)C2 (stereo not given) |  |  |  |  |  |  |  |  |  |  | Activity (Mus musculus [1]): Active; Activity (Mus musculus [2]): Active; Activity (Mus musculus [3]): Active
2 | COc1cc2c(cc1OC)/C(=C\c1ccc(O)c(N3CCCCC3)c1)OC2=O | 18.4% | 27.6% | 15.8% | 34.8% | 0.0704 nM | 5.67% | 1.95 equiv | 0.338 nM |  |  | Papp at 18 h, 100 ug/ml [6]: 11.2 ×10⁻⁶ cm/s
3 | COc1cc2c(cc1OC)/C(=C/c1ccc(N3CCN(C)CC3)c(O)c1)OC2=O |  | < 5% |  |  |  | 16.5% | 1.36 equiv |  |  |  | inhibition [12]: 42.4%; IC50 [13]: 1.55 µM
4 | O=C1CCc2cc(OCCCCc3nnnn3C3CCCCC3)ccc2N1 [CILOSTAZOL] |  |  |  |  |  |  |  |  |  |  | IC50 (Plasma [14]): 65.1 µM
5 | COc1cc2c(cc1OC)/C(=C/c1ccc(O)c(N3CCCCC3)c1)OC2=O | 32.5% | 22.4% | 34.2% |  | 0.0918 nM | < 5% | 2.05 equiv | 0.616 nM | 11.8% | 19.9% | viability at 50 µM (PC-12 [15]): 79%; viability at 2 h, 100 µM [16]: 81.2%; Activity (Mus musculus [17]): Dose-dependent effect; Papp at 18 h, 100 ug/ml [6]: 12.3 ×10⁻⁶ cm/s; Activity (Mus musculus [18]): Dose-dependent effect; Activity (PC-12 [19]): Non-Toxic; Activity [20]: Active; Activity (PC-12 [21]): Dose-dependent effect; Ki (Acetylcholinesterase [23]): 0.082 nM; Activity [25]: Active; Activity [26]: Active; Activity [27]: Active; IC50 [13]: 5.88 µM; Activity (mole fraction) [28]: 0.88; Activity (Mus musculus [29]): Dose-dependent effect
6 | CCCCC1OC(=O)c2ccccc21 (racemic) [RAC-3-N-BUTYLPHTHALIDE] | 9.5% | < 5% |  |  |  |  | 0.2 equiv |  | < 5% | < 5% | inhibition (Acetylcholinesterase [30]): < 5%; Activity (PC-12 [31]): Active
7 | COc1cc(/C=C/C(=O)CC(=O)/C=C/c2ccc(O)c(OC)c2)ccc1O |  |  |  |  |  |  |  |  | 24.3% | 58% | 
8 | Cc1c(C)c2c(c(C)c1O)CCC(C)(C(=O)O)O2 (stereo not given) |  |  |  |  |  |  |  |  |  |  | Activity (PC-12 [32]): Active
9 | CCN(CC)c1cc(/C=C2\OC(=O)c3cc(OC)c(OC)cc32)ccc1O | 45.1% | 15.7% | 25.9% | 46.2% | 0.383 nM | < 5% | 2.14 equiv | 1.55 nM | 19.9% | < 5% | 
10 | COc1cc2c(cc1OC)/C(=C/c1ccc(N3CCCCC3)c(O)c1)OC2=O | 15.4% | < 5% | 24.6% | < 5% | 66 nM | 6.1% | 1.46 equiv | 50 nM |  |  | 

Reference: ChEMBL document CHEMBL4706703, “Novel 3-benzylidene/benzylphthalide Mannich base derivatives as potential multifunctional agents for the treatment of Alzheimer's disease” (Bioorg Med Chem, 2021)
